“And” between values parts separate entries of the source, which are not always exact repeats. Equal entries are not always repeated.
What was measured:
[1] = test system: sarcosine oxidase (Toyobo); assay: Toyobo Sarcosine Oxidase Enzyme Absorbance with BSA and MIT; assay type: biochemical; conditions: for Sarcosine Oxidase Enzyme Absorbance, MEAN of 7-11 / Sarcosine Oxidase Enzyme Absorbance, replicates 7-11 / % Bias / Sarcosine Oxidase Enzyme Absorbance, MEAN of 1-5: Day 14; for Sarcosine Oxidase Enzyme Absorbance, MEAN of 7-11 / Sarcosine Oxidase Enzyme Absorbance, replicates 7-11 / Sarcosine Oxidase Enzyme Absorbance, MEAN of 1-5: 37° C.
Description: Tables 1-4 depict aqueous solutions comprising varying concentrations of BSA (at concentrations of 0 mg/mL, 5 mg/mL, 25 mg/mL, and 50 mg/mL), varying concentrations of MIT (at concentrations of 50 parts per million and 100 parts per million) or Proclin™ 300 (at concentrations of 0.7% and 1.4%) biocides over a particular time period (measurements were taken at days 0, 4, and 14 after exposure of the enzyme(s) to the aqueous solutions) and the associated enzyme absorbance measurements for sarcosine oxidase (commercially offered for sale by BBI Solutions and Toyobo). Absorbance measurements of the sarcosine oxidase enzyme(s) were taken via spectrophotometer for each aqueous solution (represented as columns 1-5 in Tables 1-4—column 6 is a blank), the absorbance being directly proportional to the enzyme activity being measured-which for Tables 1-4 is sarcosine oxidase enzyme activity. Accordingly, the higher the absorbance measurement, the higher the enzyme activity of sarcosine oxidase. Columns 7-11 represent five replicate readings in which the aqueous solution only contains BSA (i.e., there is no biocide(s) present in the aqueous solution). In addition, the mean values, standard deviations, and coefficients of variation are also presented for the enzyme activity/absorbance of each aqueous solution. All measurements were taken at 37° C.
As depicted below in Table 2, sarcosine oxidase (commercially offered for sale by Toyobo) enzyme activity is measured against various concentrations of MIT (biocide) and BSA (scavenger protein) over a period of 14 days (with absorbance measurements taken at 0, 4, and 14 days) for five different aqueous solutions (represented as columns 1-5-column 6 is a blank).

[2] = test system: sarcosine oxidase (BBI Solutions); assay: BBI Solutions Sarcosine Oxidase Enzyme Absorbance with BSA and Proclin 300; assay type: biochemical
Text: Absorbance measurements of the sarcosine oxidase enzyme(s) were taken via spectrophotometer for each aqueous solution (represented as columns 1-5 in Tables 1-4—column 6 is a blank), the absorbance being directly proportional to the enzyme activity being measured-which for Tables 1-4 is sarcosine oxidase enzyme activity. Accordingly, the higher the absorbance measurement, the higher the enzyme activity of sarcosine oxidase. […] In addition, the mean values, standard deviations, and coefficients of variation are also presented for the enzyme activity/absorbance of each aqueous solution. All measurements were taken at 37° C.

[3] = 25 mg/mL BSA only, no MIT (100 ppm MIT row)
[4] = 50 mg/mL BSA only, no MIT (50 ppm MIT row)
[5] = 50 mg/mL BSA only, no MIT (100 ppm MIT row)
[6] = Day 0, BSA 5 mg/mL only, no Proclin 300, line of 0.7% Proclin 300
[7] = Day 0, BSA 5 mg/mL only, no Proclin 300, line of 1.4% Proclin 300
[8] = Day 0, BSA 25 mg/mL only, no Proclin 300, line of 0.7% Proclin 300
[9] = Day 0, BSA 25 mg/mL only, no Proclin 300, line of 1.4% Proclin 300
[10] = Day 0, BSA 50 mg/mL only, no Proclin 300, line of 0.7% Proclin 300
[11] = Day 0, BSA 50 mg/mL only, no Proclin 300, line of 1.4% Proclin 300
[12] = Day 4, BSA 5 mg/mL only, no Proclin 300, line of 0.7% Proclin 300
[13] = Day 4, BSA 5 mg/mL only, no Proclin 300, line of 1.4% Proclin 300
[14] = Day 4, BSA 25 mg/mL only, no Proclin 300, line of 0.7% Proclin 300
[15] = Day 4, BSA 25 mg/mL only, no Proclin 300, line of 1.4% Proclin 300
[16] = Day 4, BSA 50 mg/mL only, no Proclin 300, line of 0.7% Proclin 300
[17] = Day 4, BSA 50 mg/mL only, no Proclin 300, line of 1.4% Proclin 300
[18] = Day 14, BSA 5 mg/mL only, no Proclin 300, line of 0.7% Proclin 300
[19] = Day 14, BSA 5 mg/mL only, no Proclin 300, line of 1.4% Proclin 300
[20] = Day 14, BSA 25 mg/mL only, no Proclin 300, line of 0.7% Proclin 300
[21] = Day 14, BSA 25 mg/mL only, no Proclin 300, line of 1.4% Proclin 300
[22] = Day 14, BSA 50 mg/mL only, no Proclin 300, line of 0.7% Proclin 300
[23] = Day 14, BSA 50 mg/mL only, no Proclin 300, line of 1.4% Proclin 300

- Sarcosine Oxidase Enzyme Absorbance, MEAN of 7-11 [1, 3]: 1.41
- Sarcosine Oxidase Enzyme Absorbance, MEAN of 7-11 [1, 4]: 1.41
- Sarcosine Oxidase Enzyme Absorbance, MEAN of 7-11 [1, 5]: 1.42
- % Bias ([1]; 50 ppm MIT vs no MIT, 5 mg/mL BSA): 0.3%
- % Bias ([1]; 50 ppm MIT vs no MIT, 25 mg/mL BSA): 1.6%
- % Bias ([1]; 50 ppm MIT vs no MIT, 50 mg/mL BSA): 0.7%
- Sarcosine Oxidase Enzyme Absorbance, MEAN of 1-5 ([1]; 50 ppm MIT, 5 mg/mL BSA): 0.29
- Sarcosine Oxidase Enzyme Absorbance, MEAN of 1-5 ([1]; 50 ppm MIT, 25 mg/mL BSA): 1.39
- Sarcosine Oxidase Enzyme Absorbance, MEAN of 1-5 ([1]; 50 ppm MIT, 50 mg/mL BSA): 1.42
- % Bias ([1]; 100 ppm MIT vs no MIT, 5 mg/mL BSA): −0.8%
- % Bias ([1]; 100 ppm MIT vs no MIT, 25 mg/mL BSA): −0.1%
- % Bias ([1]; 100 ppm MIT vs no MIT, 50 mg/mL BSA): 0.2%
- Sarcosine Oxidase Enzyme Absorbance, MEAN of 1-5 ([1]; 100 ppm MIT, 5 mg/mL BSA): 0.31
- Sarcosine Oxidase Enzyme Absorbance, MEAN of 1-5 ([1]; 100 ppm MIT, 25 mg/mL BSA): 1.41
- Sarcosine Oxidase Enzyme Absorbance, MEAN of 1-5 ([1]; 100 ppm MIT, 50 mg/mL BSA): 1.42
- absorbance of the sarcosine oxidase enzyme compared to samples containing 0 mg/mL of BSA ([1]; days 4 and 14, 5, 25 and 50 mg/mL BSA, with MIT): increased absorbance
- sarcosine oxidase absorbance, solutions 7-11 ([1]; days 4 and 14, only BSA, no MIT): increased (or at least maintained)
- Absorbance, solutions 7-11 [2, 6]: 1.447 and 1.677 and 1.453 and 1.748
- MEAN absorbance, solutions 7-11 [2, 6]: 1.51
- MEAN absorbance, solutions 7-11 [2, 7]: 1.40
- MEAN absorbance, solutions 7-11 [2, 8]: 1.37
- MEAN absorbance, solutions 7-11 [2, 9]: 1.34
- MEAN absorbance, solutions 7-11 [2, 10]: 1.35
- MEAN absorbance, solutions 7-11 [2, 11]: 1.35
- MEAN absorbance, solutions 7-11 [2, 12]: 1.45
- MEAN absorbance, solutions 7-11 [2, 13]: 1.42
- MEAN absorbance, solutions 7-11 [2, 14]: 1.40
- MEAN absorbance, solutions 7-11 [2, 15]: 1.38
- MEAN absorbance, solutions 7-11 [2, 16]: 1.38
- Absorbance, solutions 7-11 [2, 17]: 1.38 and 1.397 and 1.399 and 1.403
- MEAN absorbance, solutions 7-11 [2, 17]: 1.35
- MEAN absorbance, solutions 7-11 [2, 18]: 1.49
- Absorbance, solutions 7-11 [2, 19]: 1.527 and 1.53 and 1.526 and 1.566
- MEAN absorbance, solutions 7-11 [2, 19]: 1.49
- MEAN absorbance, solutions 7-11 [2, 20]: 1.47
- MEAN absorbance, solutions 7-11 [2, 21]: 1.47
- MEAN absorbance, solutions 7-11 [2, 22]: 1.46
- MEAN absorbance, solutions 7-11 [2, 23]: 1.46
- absorbance of the sarcosine oxidase enzyme compared to samples containing 0 mg/mL of BSA ([2]; days 4 and 14, 5, 25 and 50 mg/mL BSA, with Proclin 300): increased absorbance
- sarcosine oxidase absorbance, solutions 7-11 ([2]; days 4 and 14, only BSA, no Proclin 300): increased (or at least maintained)
Substance: bovine serum albumin [BSA]
- Sarcosine Oxidase Enzyme Absorbance, replicates 7-11 [1, 3]: 1.443 and 1.445 and 1.46 and 1.471 and 1.461
- Sarcosine Oxidase Enzyme Absorbance, replicates 7-11 [1, 4]: 1.436 and 1.456 and 1.449 and 1.465 and 1.488
- Sarcosine Oxidase Enzyme Absorbance, replicates 7-11 [1, 5]: 1.476 and 1.446 and 1.464 and 1.474 and 1.469
- Absorbance, solutions 7-11 [2, 7]: 1.464 and 1.437 and 1.453 and 1.458 and 1.444
- Absorbance, solutions 7-11 [2, 8]: 1.429 and 1.441 and 1.415 and 1.398 and 1.406
- Absorbance, solutions 7-11 [2, 9]: 1.39 and 1.396 and 1.375 and 1.392 and 1.376
- Absorbance, solutions 7-11 [2, 10]: 1.376 and 1.375 and 1.399 and 1.416 and 1.421
- Absorbance, solutions 7-11 [2, 11]: 1.402 and 1.394 and 1.401 and 1.397 and 1.396
- Absorbance, solutions 7-11 [2, 12]: 1.505 and 1.507 and 1.518 and 1.472 and 1.484
- Absorbance, solutions 7-11 [2, 13]: 1.446 and 1.471 and 1.449 and 1.46 and 1.484
- Absorbance, solutions 7-11 [2, 14]: 1.45 and 1.451 and 1.465 and 1.418 and 1.415
- Absorbance, solutions 7-11 [2, 15]: 1.416 and 1.421 and 1.436 and 1.431 and 1.426
- Absorbance, solutions 7-11 [2, 16]: 1.416 and 1.425 and 1.435 and 1.402 and 1.421
- Absorbance, solutions 7-11 [2, 18]: 1.53 and 1.542 and 1.526 and 1.538 and 1.535
- Absorbance, solutions 7-11 [2, 20]: 1.498 and 1.527 and 1.533 and 1.503 and 1.505
- Absorbance, solutions 7-11 [2, 21]: 1.499 and 1.497 and 1.533 and 1.539 and 1.525
- Absorbance, solutions 7-11 [2, 22]: 1.493 and 1.499 and 1.505 and 1.513 and 1.541
- Absorbance, solutions 7-11 [2, 23]: 1.467 and 1.491 and 1.482 and 1.534 and 1.529
